Read-outs that look alike come from different tables or passages of the source.
Tests used:
Zein = conditions: normalized to SLS as 100%; Stepan Chemical company literature; cited from earlier work
Zein corn protein [1] = experiment: Zein test (Zein score, skin irritation potential); conditions: 1 wt % active surfactant solution
Text: (§1) Zein score can be measured using a Zein test (Gott, E., Aesthet. Medzin., Tenside 15: 313 (1966)), although other methodologies are known in the art. The Zein test determines the extent of denaturation of Zein corn protein after exposure to a surfactant for a given period of time. The higher the Zein score, the greater the skin irritation potential.
(§2) Zein scores for formulations (or detergent products) described herein refer to Zein scores obtained when a 10% dilution of a given formulation (or detergent product) is tested. Zein scores for individual surfactants refer to Zein scores obtained from testing 1% active surfactant solutions.
(§3) The “test surfactant solution” can be a solution with 1 wt % active surfactant when a surfactant is tested by itself Alternatively, the test surfactant solution can be a 10 wt % dilution of a formulation or product described herein. […] An aliquot (3.0 mL) was accurately measured and removed and set aside in a closed container as a blank solution. […] If all of the Zein protein was dissolved, 1 gram of additional Zein protein was added so that some solid remained undissolved. The mixture was stirred for one hour at room temperature. Undissolved Zein was then removed by filtration to obtain a filtrate solution. A 3.0 ml aliquot of the filtrate solution was accurately measured and placed in a tared aluminum pan and dried in an oven at 70° C. The percent of solids was calculated. Likewise, the blank solution was dried at 70° C. and the solids content of this 3 mL aliquot was determined. The solid weight in the blank solution was subtracted from the solid weight in the filtration solution and the quantity of dissolved Zein in the filtration solution was calculated by difference and reported as g Zein/100 g surfactant solution (also called “% Zein” or “Zein score”).
(§4) As a control, a Zein score was also measured for the Commercial Comparator using a 10% dilution.

Zein corn protein [2] = tested on: Zein corn protein
Text: as §1, §2, §3, §4

% Zein (g/100 g surfactant solution) (Zein corn protein [2])	Molecule	Normalized Zein Score of Surfactant (Zein)	% Zein (g/100 g surfactant solution) (Zein corn protein [1])
–	CCCCCCCCCCC(C(=O)OC)S(=O)(=O)O.[Na] (centres unmarked) [MES, Sodium methyl 2-sulfolaurate]	68%	–
–	CCCCCCCCCCCCOS(=O)(=O)[O-].[Na+] [Sodium lauryl sulfate (SLS), Sodium lauryl sulfate]	–	2.70 g/100 g surfactant solution
0.56 g/100 g surfactant solution	Cocoamidopropyl betaine [Cocoamidopropyl betaine (CAPB)]	30%	–
–	Disodium Laureth Sulfosuccinate [STEPAN-MILD SL3-BA]	44%	–
1.55 g/100 g surfactant solution	Methyl ester sulfonate C16-C18 [Methyl ester sulfonate C16-C18 (MES)]	–	–
–	Sodium C14-16 Olefin Sulfonate (AOS) [BIO-TERGE AS-40]	75%	–
–	Sodium Methyl Cocoyl Taurate [Pureact WS Conc.]	45%	–

Reference: patent publication US20170044471A1, “Sulfate-Free Liquid Laundry Detergent” (The Sun Products Corporation, priority 2015, published 2017)
